Experimental findings from paper PMC3877544 (Cell Death & Disease, 2013) are described below.

In the assay the target is voltage-dependent anion channel 1 (VDAC1) (Rattus norvegicus, UniProt Q9Z2L0). The assay can be described thus: microscale thermophoresis with fluorescently labeled purified VDAC1. The class given is binding. For orientation: In MST a laser heats a spot of the sample, and binding alters the fluorescence response.
voltage-dependent anion channel 1 (VDAC1), sequence (Q9Z2L0 2-283): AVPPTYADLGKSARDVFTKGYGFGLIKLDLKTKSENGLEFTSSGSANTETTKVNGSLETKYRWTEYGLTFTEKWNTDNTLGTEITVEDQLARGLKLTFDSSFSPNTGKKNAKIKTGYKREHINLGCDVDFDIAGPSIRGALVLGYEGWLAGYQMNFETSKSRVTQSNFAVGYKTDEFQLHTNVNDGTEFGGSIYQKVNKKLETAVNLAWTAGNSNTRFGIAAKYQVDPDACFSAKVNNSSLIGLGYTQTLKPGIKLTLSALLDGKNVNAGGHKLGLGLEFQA

Consider `C=C(C)[C@@H]1CCC(C)=C[C@H]1c1c(O)cc(CCCCC)cc1O` [CBD, cannabidiol], for which the Kd came out at 11.2 ± 6 µM.

In general, Kd refers to the equilibrium constant for the complex coming apart.
